According to patent US20080194493A1, “Compositions Containing D-Carnosine” (priority 2004, published 2008):
Like-named read-outs stand apart in the source and are kept apart here.

What was measured:
[1] = Reactivity towards HNE in homogeneous solution (aldehyde consumption by liquid chromatography); type: biochemical; settings: for inhibited HNE: HNE 10 μm in 10 mM phosphate buffer, molar ratios 1:10 and 1:20
Experimental: The almost identical reactivity compared with the L-form towards cytotoxic aldehydes, especially HNE and acrolein, was confirmed in a homogenous solution of HNE (10 μm) and acrolein (200 μm) in 10 mM phosphate buffer in molar ratios of the dipeptides amounting to 1:10 and 1:20. […]

Zucker rats = experiment: Pharmacological effects of chronic treatment in Zucker rats; type: in vivo
Description: In particular, D-carnosine is effective for the treatment or prevention of disorders involving highly reactive and cytotoxic carbonyl derivatives (HNE, acrolein, malonyldialdehyde, glyoxal and dimethylglyoxal), especially Alzheimer's disease, atherosclerosis, disorders secondary to diabetes, age-associated tissue degeneration such as sarcopenia, and correlated disorders. Forms designed for topical administration are particularly indicated for the latter.

[2] = Crossing of the blood-brain barrier (stated, no method)
[3] = In vitro stability in human plasma (LC-MS/MS); settings: after 6 hours incubation at 37° C., in the presence and absence of cadmium chloride
[4] = In vivo acute study, oral administration to Wistar rats; settings: 570 mg/kg
Experimental: (§1) An LC-MS/MS technique, validated in the 5-250 μM range, with detection limits of 50-20 picomoles, was set-up for this purpose.
(§2) In the in vivo acute studies, D- and L-carnosine were administered orally to Wistar rats (320 g±25 g) in the form of an aqueous solution at pH 7.4 (HCl) at the dose of 570 mg/kg.

[5] = Chronic treatment with the diet water in obese-Zucker rats: levels in plasma, urine and kidney
Experimental: The stability of L- and D-carnosine was compared in human plasma and serum in vitro, and in vivo in the rat (acute and chronic treatment). An LC-MS/MS technique, validated in the 5-250 μM range, with detection limits of 50-20 picomoles, was set-up for this purpose.
In chronic treatment, D- and L-camosine were administered with the diet water for 12 weeks at a dose of 30 mg/Kg. The experiment was carried out by using obese-Zucker rats (Charles River), an animal model of metabolic disorders, characterized by hyperinsulinemia, insulin resistance, obesity, hypertriglyceridemia, hypercholesterolemia, and by an increased formation of lipid derived carbonyls, protein carbonylation and appearance of carbonyl-dependent degenerative process such as nephropathy and vascular dysfunction, (Metz T O, Alderson N L, Chachich M E, Thorpe S R, Baynes J W, Pyridoxamine traps intermediates in lipid peroxidation reactions in vivo: evidence on the role of lipids in chemical modification of protein and development of diabetic complications, J Biol Chem. 2003 October 24;278(43):42012-9.

[6] = rat, in vivo, po, 570 mg/kg
Experimental: as §1, §2

carnosinases = target: T1, carnosinases (Homo sapiens, UniProt Q96KN2); settings: cited from earlier work
T1 construct: host or cells: human serum
T1 sequence (Q96KN2 27-507 limits assumed): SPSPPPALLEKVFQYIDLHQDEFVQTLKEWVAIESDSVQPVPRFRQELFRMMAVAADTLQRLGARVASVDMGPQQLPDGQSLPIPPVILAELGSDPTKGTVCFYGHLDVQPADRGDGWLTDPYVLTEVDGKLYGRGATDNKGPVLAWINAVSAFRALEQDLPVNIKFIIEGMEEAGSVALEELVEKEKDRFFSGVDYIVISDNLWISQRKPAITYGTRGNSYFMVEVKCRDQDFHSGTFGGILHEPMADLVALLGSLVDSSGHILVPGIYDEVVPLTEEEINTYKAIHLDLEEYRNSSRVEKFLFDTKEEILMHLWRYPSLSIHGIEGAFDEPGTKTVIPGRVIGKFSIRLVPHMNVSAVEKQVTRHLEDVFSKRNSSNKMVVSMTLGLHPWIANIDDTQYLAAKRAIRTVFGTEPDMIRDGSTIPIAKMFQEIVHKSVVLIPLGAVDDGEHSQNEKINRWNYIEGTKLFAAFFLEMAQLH

[7] = 30 mg/Kg with the diet water for 12 weeks

stability in human plasma	time to disappear from the administration ([6]; Wistar)	Cmax (time at which reached) [6]	Compound	activity towards HNE compared with aminoguanidine and methoxyamine [1]	reaction kinetics with HNE [1]	inhibited HNE ([1]; after 24 hours)	inhibited HNE ([1]; after one hour's incubation)	pharmacological effects of chronic treatment (Zucker rats)	blood-brain barrier crossing [2]	stability in human plasma [3]	Cmax reached at (time) [4]	pharmacological levels maintained up to [4]	time to disappear from the administration [4]	level in plasma [5, 7]	level in the kidney [5, 7]	level in urine [5, 7]	increase of D-carnosine in respect to L-carnosine in plasma ([5]; 30 mg/Kg, 12 weeks)	increase of D-carnosine in respect to L-carnosine in urine as well as in the kidney ([5]; 30 mg/Kg, 12 weeks)	hydrolysis in human serum (carnosinases)
–	–	–	NCCC(=O)N[C@H](Cc1cnc[nH]1)C(=O)O [D-carnosine]	far more active towards HNE than aminoguanidine and methoxyamine	first-order profile	98.3%	49.2%	restrain: hypertriglyceridemia, hypercholesterolemia, hyperthenison, and carbonyl related disesases such as vascular dysfunction and nephropathy	able to cross the blood-brain barrier	remained unchanged	2 h	up to 8 hours	24 h	1240 ± 300 nM	340.2±12.3 nmoles/gr wt tissue	6688±345 nmoles over 24 hrs	6 fold	more than a ten-fold increase	–
undetectable	≤ 2 h	60 min	NCCC(=O)N[C@@H](Cc1cnc[nH]1)C(=O)O [L-carnosine, β-alanyl-L-histidine]	–	–	96.4%	44%	–	–	–	–	–	–	–	–	–	–	–	rapidly hydrolysed
